Test system: PKC-neg-40B-Luc minigene in 293T cells
Experiment: Luciferase splicing reporter screen of the LOPAC 1280 library
Assay type: cell-based
Conditions: for Avg Med norm: luciferase fold-increase over the Average Median norm for each plate exclusive of Esrp1 control wells; for Avg Med norm / Avg DMSO Norm: 293T reporter cells, 24 hours; for Avg DMSO Norm: luciferase fold-increase over the Average control (DMSO) norm; for luciferase readings versus background reading: LOPAC screen, result in words
Protocol: Briefly, compounds from the LOPAC™ library were dissolved in DMSO. 293T cells (which express predominantly FGFR2-IIIc) which stably express the PKC-neg-40B-Luc minigene, as described in Example 1, were incubated with the compounds or with a DMSO control for 24 hours. After the incubation period, BriteLite luciferase readout reagent was added to each well and the plates were read on an Analyst HT multimode plate reader (Molecular Devices). As positive controls, we also added a cDNA encoding the mouse Esrp1 protein to individual wells on each plate.
The results were then ranked in order from largest fold change over background down to the DMSO blank.

SMILES	Avg Med norm	Avg DMSO Norm	luciferase readings versus background reading
CNCC(O)c1ccc(O)c(O)c1.Cl (racemic) [(±)-Epinephrine hydrochloride]	1.714 fold	1.674 fold	
CC(C)NCC(O)c1ccc(O)c(O)c1.Cl (racemic) [(±)-Isoproterenol hydrochloride]	1.713 fold	1.663 fold	
NC(N)=NC(=O)c1nc(Cl)c(N2CCCCCC2)nc1N [5-(N,N-hexamethylene)amiloride]	1.643 fold	1.762 fold	
CNC[C@H](O)c1ccc(O)c(O)c1.O=C(O)C(O)C(O)C(=O)O [(−)-Epinephrine bitartrate]	1.696 fold	1.654 fold	
C[C@H]1C[C@H]2[C@@H]3CCC4=CC(=O)C=C[C@]4(C)[C@@]3(Cl)[C@@H](O)C[C@]2(C)[C@@]1(O)C(=O)CO [Beclomethasone, 9alpha-Chloro-16beta-methyl-1,4-pregnadiene-11beta,17alpha,-21triol-3,20-dione]	1.861 fold	1.996 fold	significantly over the background reading
Clc1ccccc1C(c1ccccc1)(c1ccccc1)n1ccnc1 [Clotrimazole, 1-(o-Chlorotrityl)-imidazole]	1.671 fold	1.792 fold	
CCNC(=O)[C@H]1O[C@@H](n2cnc3c(NCc4ccccc4)ncnc32)[C@H](O)[C@@H]1O [N6-Benzyl-5′-N-ethylcarboxamidoadenosine]	1.822 fold	1.953 fold	significantly over the background reading
OC[C@H]1O[C@@H](n2cnc3c(Nc4ccccc4)ncnc32)[C@H](O)[C@@H]1O [N6-Phenyladenosine]	1.942 fold	2.095 fold	
COc1cccc(-c2cc(=O)c3ccccc3o2)c1N [PD 98,059, 2-(2-Amino-3-methoxyphenyl)-4H-1-benzopyran-4-one]	1.783 fold	1.923 fold	
CCCCCCCCCCCCCC(=O)O[C@@H]1[C@@H](C)[C@@]2(O)[C@@H](C=C(CO)C[C@]3(O)C(=O)C(C)=C[C@@H]23)[C@@H]2C(C)(C)[C@]12OC(C)=O [Phorbol 12-myristate 13-acetate]	3.825 fold	4.122 fold	significantly over the background reading
COc1cc([C@@H]2c3cc4c(cc3[C@H](O)[C@H]3COC(=O)[C@H]23)OCO4)cc(OC)c1OC [Podophyllotoxin]	2.036 fold	1.985 fold	significantly over the background reading
CC(C)NC[C@H](O)c1ccc(O)c(O)c1.O=C(O)C(O)C(O)C(=O)O [R(−)-Isoproterenol(+)-bitartrate]	1.996 fold	1.943 fold	significantly over the background reading
COc1cccc(NC(=O)/C=C/c2ccc(Cl)cc2)c1 [SB-366791]	1.665 fold	1.795 fold	
Cc1ccc(O)c(N=Nc2ccccc2)n1 [SIB 1757, 6-Methyl-2-(phenylazo)-3-pyridinol]	2.598 fold	2.803 fold	significantly over the background reading
